biological target: T1, Recombinant human LTC4 synthase (Homo sapiens, UniProt Q16873); experiment: LTC4 synthase in vitro assay (e.g. by HTRF detection); assay type: biochemical
T1 construct: made in house; host or cells: Pichia pastoris ('Piccia pastoralis' [sic])
T1 sequence (Q16873 1-150): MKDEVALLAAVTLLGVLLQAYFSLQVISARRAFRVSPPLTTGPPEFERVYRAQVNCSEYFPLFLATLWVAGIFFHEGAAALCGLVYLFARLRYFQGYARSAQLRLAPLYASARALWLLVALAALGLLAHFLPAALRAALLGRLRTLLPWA
Experimental: In the assay, LTC4 synthase catalyses the reaction where the substrate LTA4 methyl ester is converted to the corresponding LTC4 methyl ester. Recombinant human LTC4 synthase is expressed in Piccia pastoralis and the purified enzyme is dissolved in 25 mM Tris-buffer pH 7.8 and stored at −80° C. The assay is performed in phosphate buffered saline (PBS) pH 7.4, supplemented with 5 mM glutathione (GSH). The reaction is terminated by addition of acetonitrile/MeOH/acetic acid (50/50/1). The assay is performed at rt in 96-well plates. Analysis of the formed LTC4 methyl ester is performed with reversed phase HPLC (Waters 2795 utilizing an Onyx Monolithic C18 column). The mobile phase consists of acetonitrile/MeOH/H2O (32.5/30/37.5) with 1% acetic acid pH adjusted with NH3 to pH 5.6, and absorbance measured at 280 nm with a Waters 2487 UV-detector.
The following is added chronologically to each well: • 1. 50 μl assay buffer, PBS with 5 mM GSH. • 2. 0.5 μl inhibitor in DMSO (final conc. 1 nM-10 μM). • 3. 2 μl LTC4 synthase in PBS. The total protein concentration in this solution is 0.025 mg/ml. Incubation of the plate at room temperature for 10 minutes. • 4. 1-1.5 μl LTA4 methyl ester (final conc. 10 μM). Incubation of the plate at rt for 1 min. • 5. 50 μl stop solution.
80 μl of the incubation mixture is analysed with HPLC.
Alternatively, HTRF detection can be used:
In the assay, LTC4 synthase catalyses the reaction where the substrate LTA4 is converted to LTC4. Recombinant human LTC4 synthase is expressed in Piccia pastoralis and the purified enzyme is dissolved in 25 mM tris-buffer pH 7.8 supplemented with 0.1 mM glutathione (GSH) and stored at −80° C. The assay is performed in phosphate buffered saline (PBS) pH 7.4 and 5 mM GSH in 384-well plates.
The following is added chronologically to each well:
1.48 μL LTC4 synthase in PBS with 5 mM GSH. The total protein concentration in this solution is 0.5 μg/mL.
2. 1 μL inhibitor in DMSO (final concentration 1 nM to 10 μM).
3. Incubation of the plate at room temperature for 10 min.
4. 1 μL LTA4 (final concentration 2.5 μM).
5. Incubation of the plate at room temperature for 5 min.
6. 10 μL of the incubation mixture is analysed using homogenous time resolved fluorescent (HTRF) detection.

Structure (SMILES)	IC50 [µM]
CCCCOc1ccc(S(=O)(=O)Nc2ccc(Oc3ccc(Nc4ccc(F)c(F)c4)cc3C(=O)O)cc2C(=O)O)cc1 [Example 3, 2-(4-Butoxy-benzene-sulfonylamino)-5-[2-carboxy-4-(3,4-difluoro-phenylamino)-phenoxy]-benzoic acid]	1.02
CCCCOc1ccc(S(=O)(=O)Nc2ccc(Oc3ccc(Nc4ccc(F)c(F)c4)cc3C(=O)O)cc2)cc1 [Example 1, 2-[4-(4-Butoxy-benzene-sulfonylamino)-phenoxy]-5-(3,4-difluoro-phenyl-amino)-benzoic acid]	0.243
O=C(O)c1cc(Oc2ccc(Nc3ccc(F)c(F)c3)cc2C(=O)O)ccc1Nc1ccc(F)c(F)c1 [Example 4]	2.03
O=C(O)c1cc(Nc2ccc(F)c(F)c2)ccc1Oc1ccc(Nc2ccc(F)c(F)c2)cc1 [Example 2, 5-(3,4-Difluoro-phenylamino)-2-[4-(3,4-difluoro-phenylamino)-phenoxy]-benzoic acid]	1.9

— patent US20110112193A1 (priority 2008, published 2011)
